Values quoted from earlier work as cited in patent US6458923B1, “Modified position (7) bradykinin antagonist peptides” (Scios Inc., priority 1991, dated 2002).
No end group written: not given here.

What was measured:
pulmonary kininase = details: anesthetized rat; intra-aortic vs intravenous administration

RPPGFSPFR [Bradykinin, Arg Pro Pro Gly Phe Ser Pro Phe Arg]
destruction on a single passage through the pulmonary circulation (pulmonary kininase): 98-99% | half life in the systemic circulation: less than 30 seconds
